The target of series [1] is EGF receptor tyrosine kinase (Homo sapiens, UniProt P00533). Briefly: Tyrosine kinase assay, isolated EGF receptor tyrosine kinase. The format is biochemical. Conditions: read-out: EGFR Tyrosine Kinase IC50.
The target of series [2] is T1, EGF receptor autophosphorylation in A431 cells (Homo sapiens, UniProt P00533).
T1 construct: A431 human epidermoid carcinoma cells were grown in 6-well plates; endogenous in cells; host or cells: A431 human epidermoid carcinoma cells
The series is described as follows: Irreversibility test: recovery of EGF receptor autophosphorylation after washout. The format is cell-based. The settings on record: A431 cells, 2 μM inhibitor; for % Control After 2-Hour Incubation: EGFR autophosphorylation; for % Control After 8 Hours in Drug-Free Media Incubation: washed, 8 hours drug-free.
Experimental: (§1) Extracts were made by lysing the monolayers in 0.2 mL of boiling Laemlli buffer (2% sodium dodecyl sulfate, 5% beta-mercaptoethanol, 10% glycerol and 50 mM tris[hydroxymethyl]aminomethane (Tris), pH 6.8), and the lysates were heated to 100° C. for 5 minutes. Proteins in the lysate were separated by polyacrylamide gel electrophoresis and electrophoretically transferred to nitrocellulose. The membrane was washed once in 10 mM Tris, pH 7.2, 150 mM NaCl, 0.01% Azide (TNA), and blocked overnight in TNA containing 5% bovine serum albumin and 1% ovalbumin. The membrane was blotted for 2 hours with antiphosphotyrosine antibody (UBI, 1 μg/mL in blocking buffer) and then washed twice in TNA, once in TNA containing 0.05% Tween-20 detergent and 0.05% nonidet P-40 detergent and twice in TNA. […] Band intensities were determined with a Molecular Dynamics laser densitometer.
Duplicate sets of cells were treated with 2 μM of designated compound to be tested as an irreversible inhibitor for either 1 or 2 hours. One set of cells was then stimulated with 100 ng/mL of EGF for 5 minutes and extracts made as described under the western blotting procedure. The other set of cells were washed free of the compound with warmed serum-free media, incubated for 2 hours, washed again, incubated another 2 hours, washed again, and then incubated a further 4 hours. This set of cells was then stimulated with EGF and extracts made similar to the first set of cells.

Series [3] deals with T1, EGF receptor autophosphorylation in A431 cells. The series is described as follows: Autophosphorylation assay in A431 cells. The format is cell-based.
Experimental: as §1
Duplicate sets of cells were treated with a range of concentrations of the designated compound to be tested as an inhibitor for 15 minutes. The cells were then stimulated with 100 ng/mL of EGF for 5 minutes and extracts made as described under the Western Blotting Procedure.
Series [4] concerns SK-OV-3 human ovarian carcinoma. Briefly: SK-OV-3 tumor xenograft. The format is in vivo, mice. The settings on record: ID dosing bid Days 10-14, 17-21, 24-28, 30 mg/kg.
Experimental: (§2) Female nude mice (NCr nu/nu, Taconic Farms) 18-20 g were implanted SC with tumor fragments (approximately 30 mg) in the region of the right axilla on Day 0. […] The vehicle was 6% dimethyl acetamide in 50 mM lactate buffer, pH 4.0Tumor volumes were recorded three times per week by measuring the length and width of the individual tumors and calculating the mass in milligrams according to the formula (a×b^2)/2, where a and b are the length and width of the tumor. Percent T/C (treated/control) was calculated based on the ratio of the median tumor volume of the treated tumors compared with the median tumor volume of the control tumors on specified measurement days.
Series [5] concerns MCF7 human breast carcinoma. The series is described as follows: MCF-7 tumor xenograft. The format is in vivo, mice.
Experimental: as §2
Series [6] deals with A431 human epidermoid carcinoma. Briefly: A431 tumor xenograft. The format is in vivo, mice.
Experimental: as §2
The subject of series [7] is murine 16/c mammary adenocarcinoma. Briefly: Murine 16/c mammary adenocarcinoma model. The format is in vivo, mice. The settings on record: doses of up to 120 mg/kg bid.
Experimental: as §2
The subject of series [8] is NIH 3T3 fibroblast transfected with the h-EGF receptor. Briefly: EGFR tumor xenograft in nude mice. The settings on record: EGFR tumor, IP bid for 14 days.
Experimental: as §2
The nature of series [9]: In vivo toxicity on IP dosing bid (no tumor named).
Where [10] appears, read: EGF-stimulated EGFR autophosphorylation in A431 cells.

Here are results for 16 molecules from patent US7786131B2, “Pyrimido[5,4-d]pyrimidines derivatives as irreversible inhibitors of tyrosine kinases” (Warner-Lambert Company, priority 1996, dated 2010).

Where two headings read alike, the source gives them in different places.

EGF receptor tyrosine kinase, sequence (P00533 25-1210): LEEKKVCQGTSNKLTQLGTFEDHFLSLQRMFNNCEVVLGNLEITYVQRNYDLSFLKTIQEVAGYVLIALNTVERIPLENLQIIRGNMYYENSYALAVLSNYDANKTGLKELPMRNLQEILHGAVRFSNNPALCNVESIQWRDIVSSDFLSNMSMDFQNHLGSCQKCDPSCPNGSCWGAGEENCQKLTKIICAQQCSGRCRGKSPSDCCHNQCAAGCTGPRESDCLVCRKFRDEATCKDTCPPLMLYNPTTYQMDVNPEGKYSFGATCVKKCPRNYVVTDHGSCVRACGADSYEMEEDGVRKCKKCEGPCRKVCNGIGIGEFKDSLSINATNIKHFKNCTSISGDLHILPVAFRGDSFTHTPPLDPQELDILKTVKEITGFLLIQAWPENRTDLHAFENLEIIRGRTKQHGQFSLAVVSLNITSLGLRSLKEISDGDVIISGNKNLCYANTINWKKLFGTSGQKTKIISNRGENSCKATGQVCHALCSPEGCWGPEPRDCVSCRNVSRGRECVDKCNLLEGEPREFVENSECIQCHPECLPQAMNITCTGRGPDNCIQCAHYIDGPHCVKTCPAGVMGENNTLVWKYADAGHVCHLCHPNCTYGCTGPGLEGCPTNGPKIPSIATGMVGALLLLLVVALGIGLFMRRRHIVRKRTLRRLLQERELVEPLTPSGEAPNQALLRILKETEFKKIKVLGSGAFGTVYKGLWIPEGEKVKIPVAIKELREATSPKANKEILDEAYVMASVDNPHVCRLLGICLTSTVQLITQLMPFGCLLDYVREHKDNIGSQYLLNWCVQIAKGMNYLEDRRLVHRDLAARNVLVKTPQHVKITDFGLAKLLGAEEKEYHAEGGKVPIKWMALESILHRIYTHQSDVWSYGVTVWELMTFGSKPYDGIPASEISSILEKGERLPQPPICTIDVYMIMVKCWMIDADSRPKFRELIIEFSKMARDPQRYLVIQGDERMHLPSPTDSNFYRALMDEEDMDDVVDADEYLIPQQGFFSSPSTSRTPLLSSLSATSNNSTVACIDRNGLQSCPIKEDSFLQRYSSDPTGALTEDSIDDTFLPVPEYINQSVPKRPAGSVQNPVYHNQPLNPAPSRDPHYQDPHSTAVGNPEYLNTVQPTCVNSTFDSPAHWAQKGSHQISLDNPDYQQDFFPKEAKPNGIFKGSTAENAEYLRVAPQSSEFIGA
T1 sequence (P00533 25-1210): as above

For `C=CC(=O)N(CCCN1CCOCC1)c1ccc2c(Nc3cccc(Br)c3)ncnc2c1` [Example 4, N-[4-[(3-Bromophenyl)amino]quinazolin-7-yl]-N-[3-morpholinopropyl]acrylamide], the melting point was 86 to 88 °C (dec.). Further, in series [1] (isolated EGFR kinase), the IC50 stood at 89 nM. In addition, in series [2], the “% Control After 2-Hour Incubation” value turned out to be 55% and the “% Control After 8 Hours in Drug-Free Media Incubation” value is recorded as 98%. Further, the midpoint of inhibition in [3] (setting [10]), the IC50, lay at 2090 nM.
In the case of `C=CC(=O)Nc1ccc2ncnc(Nc3cccc(Br)c3)c2c1` [Example 11, N-[4-[(3-Bromophenyl)amino]quinazolin-6-yl]acrylamide], the growth delay came out at 1.2 days in series [4]; 22.9 days in [5] (IP bid Days 1-5, 8-12, 15-19, 28 mg/kg); 17.4 days in series [5] (IP bid Days 1-5, 8-12, 15-19, 47 mg/kg); 28.2 days in series [6] (IP bid Days 7-11, 21-25, 28 mg/kg); 2 days in series [6] (PO once daily Days 7-21, 100 mg/kg); 3.5 days in series [6] (PO once daily Days 7-21, 200 mg/kg). Further, the outcome in series [7] was Inactive.
Take `C=CC(=O)Nc1ccc2c(Nc3cccc(C)c3)ncnc2c1` [Example 13, N-[4-(3-Methyl-phenylamino)-quinazolin-7-yl]acrylamide]: the melting point lay in the range of 269.7 to 270 °C. Besides, in series [1] (isolated EGFR kinase), the IC50 worked out at 1.6 nM. In series [2], the “% Control After 2-Hour Incubation” value stood at 1% and the “% Control After 8 Hours in Drug-Free Media Incubation” value was 90%. In series [3] (setting [10]), half-maximal inhibition (IC50) required 90 nM.
Regarding `C=CC(=O)Nc1ccc2ncnc(Nc3cccc(C)c3)c2c1` [Example 19, N-[4-[(3-methylphenyl)amino]quinazolin-6-yl]acrylamide], the values for the IC50 in series [1] (isolated EGFR kinase) and in series [3] (setting [10]) were 0.42 nM and 4.7 nM, respectively. In addition, the growth delay in [4] turned out to be 1.3 days; in series [6] (SC-Infusion (Alzet) Days 9-23, 12 mg/kg/day), 15 days; in series [6] (SC-Infusion (Alzet) Days 9-23, 24 mg/kg/day), 14 days; in series [8] (48 mg/kg), 6.4 days; in [8] (77 mg/kg), 7.9 days; in [8] (124 mg/kg), 11.8 days. Moreover, in [2], the “% Control After 2-Hour Incubation” value amounted to 0%. In addition, the “% Control After 8 Hours in Drug-Free Media Incubation” value in series [2] is listed as 0%. In [8] (200 mg/kg), the toxicity entry is “toxic”.
Consider `C=CC(=O)Nc1cc2c(Nc3cccc(Br)c3)ncnc2cc1OCCCN1CCOCC1` [Example 21, N-[4-[(3-Bromophenyl)amino]-7-[3-(4-morpholino)propoxy]quinazolin-6-yl]acrylamide], for which, in series [9] (48 mg/kg), the toxicity result is reported as “toxic”.
Turning to `C=CC(=O)Nc1cc2c(Nc3cccc(C)c3)ncnc2cc1OCCCN1CCOCC1` [Example 22, N-[4-[(3-Methylphenyl)amino]-7-[3-(4-moroholino)-propoxy]quinazolin-6-yl]acrylamide], the melting point was 69 to 72 °C. Moreover, the IC50 in series [1] (isolated EGFR kinase) is 1.5 nM. Also, in series [2], the “% Control After 2-Hour Incubation” value was 0% and the “% Control After 8 Hours in Drug-Free Media Incubation” value is recorded as 0%. In [3] (setting [10]), this molecule showed an IC50 of 27 nM.
Regarding `C=CC(=O)Nc1cc2c(Nc3cccc(Br)c3)ncnc2cc1OCCCN1CCN(C)CC1` [Example 24, N-[4-[(3-Bromophenyl)amino]-7-[3-(4,N-methyl-1,N-piperazino)propoxy]quinazolin-6-yl]acrylamide], the melting point fell in the range of 105 to 107 °C. Besides, the IC50 in series [1] came to 4 nM. In [3], this molecule showed an IC50 of 7.9 nM.
Turning to `C=CC(=O)Nc1cc2c(Nc3cccc(Br)c3)ncnc2cc1OCCCCN(C)C` [Example 26, N-[4-[(3-Bromophenyl)amino]-7-[4-(N,N-dimethyl-amino)butoxy]quinazolin-6-yl]acrylamide], the melting point was in the range of 112 to 115 °C. The IC50 in [1] (isolated EGFR kinase) worked out at 1.7 nM. In series [2], the “% Control After 2-Hour Incubation” value was 0% and the “% Control After 8 Hours in Drug-Free Media Incubation” value was determined as 0%. In series [3] (setting [10]), this molecule registered an IC50 of 3 nM.
Consider `C=CC(=O)Nc1cc2c(Nc3cccc(C)c3)ncnc2cn1` [Example 37, N-[4-(3-Methyl-phenylamino)-pyrido [3,4-d]pyrimidin-6-yl]acryl], for which the melting point is 221 to 223 °C (dec.). Besides, the IC50 in series [1] (isolated EGFR kinase) amounted to 0.48 nM. Moreover, in [2], the “% Control After 2-Hour Incubation” value is on record as 0% and the “% Control After 8 Hours in Drug-Free Media Incubation” value came out at 0%. The molecule also gave an IC50 in series [3] (setting [10]) of 8.3 nM.
As for `C=CS(=O)(=O)Nc1cc2c(Nc3cccc(Br)c3)ncnc2cn1` [Example 40, N-[4-(3-Bromo-phenylamino)-pyrido[3,4-d]pyrimidin-6-yl]-ethenylsulfonamide], the toxicity result in [9] (48 and 20 mg/kg) is “toxic”.
In turn, `C=CC(=O)Nc1ccc2ncnc(Nc3cccc(Br)c3)c2n1` [Example 41, N-[4-(3-Bromo-phenylamino)-pyrido [3,2-d]pyrimidin-6-yl]-acrylamide] showed a melting point of 226 to 228 °C. Further, the 50% inhibitory concentration (IC50) in series [1] (isolated EGFR kinase) is 1.1 nM. In addition, in series [2], the “% Control After 2-Hour Incubation” value is recorded as 0% and the “% Control After 8 Hours in Drug-Free Media Incubation” value is given as 0%. In series [3] (setting [10]), this molecule displayed an IC50 of 5.6 nM.
Consider `C=CC(=O)Nc1ccc2sc3c(Nc4cccc(Br)c4)ncnc3c2c1` [Example 42, N-[4-(3-Bromo-phenylamino)-benzo[b]thieno [3,2-d]pyrimidin-8-yl]acrylamide], for which the IC50 in series [1] (isolated EGFR kinase) was found to be 23 nM. Besides, in series [2], the “% Control After 2-Hour Incubation” value was 12% and the “% Control After 8 Hours in Drug-Free Media Incubation” value was found to be 50%. Further, in [3] (setting [10]), the IC50 came to 173 nM.
With `C=CC(=O)Nc1cccc2c1sc1c(Nc3cccc(Br)c3)ncnc12` [Example 43, N-[4-(3-Bromo-phenylamino)-benzo[b]thieno[3,2-d]-pyrimidin-6-yl]acrylamide], in series [1] (isolated EGFR kinase), the IC50 was determined as 1.4 nM. In series [2], the “% Control After 2-Hour Incubation” value came out at 0% and the “% Control After 8 Hours in Drug-Free Media Incubation” value was determined as 0%. In [3] (setting [10]), this molecule came in with an IC50 of 24 nM.
For `C=CC(=O)Nc1ccc2c(c1)sc1c(Nc3cccc(Br)c3)ncnc12` [Example 44, N-[4-(3-Bromo-phenylamino)-benzo[b]thieno [3,2-d]pyrimidin-7-yl]acrylamide], the melting point is 251 to 252.4 °C. Moreover, the half-maximal inhibitory concentration (IC50) in [1] (isolated EGFR kinase) is 21 nM. Besides, in series [2], the “% Control After 2-Hour Incubation” value is recorded as 13% and the “% Control After 8 Hours in Drug-Free Media Incubation” value is 42%. Also, the IC50 in [3] (setting [10]) is 327 nM.
As to `C#CC(=O)Nc1cc2c(Nc3cccc(Br)c3)ncnc2cn1` [Example 53, N-[4-(3-Bromo-phenylamino)-pyrido[3,4-d]pyrimidin-6-yl]-propynamide], in [1] (isolated EGFR kinase), the IC50 was 0.81 nM. Further, in [2], the “% Control After 2-Hour Incubation” value is 0% and the “% Control After 8 Hours in Drug-Free Media Incubation” value was 0%. The molecule further came in with a half-inhibitory concentration (IC50) in series [3] (setting [10]) of 52 nM.
`CC(=O)N(c1cccc(Br)c1)c1ncnc2ccc(N3C(=O)C=CC3=O)cc12` [Example 58, N-(3-Bromo-phenyl)-N-[6-(2,5-dioxo-2,5-dihydro-pyrrol-1-yl)-quinazolin-4-yl]-acetamide]: the melting point lay within 174 to 175 °C. Further, in series [1] (isolated EGFR kinase), the IC50 was 124 nM. In addition, in series [2], the “% Control After 2-Hour Incubation” value stood at 81% and the “% Control After 8 Hours in Drug-Free Media Incubation” value was found to be 95%. The concentration for half-maximal inhibition (IC50) in [3] (setting [10]) is more than 500 nM.

What is called IC50 is the midpoint of a concentration-inhibition curve. In general, melting point refers to the temperature, or range, at which the solid turns liquid.
